From patent US10689354B2, “Aminoazole derivative” (Teijin Pharma Limited, priority 2015, dated 2020)

Key:
[1] = biological target: T1, human androgen receptor (Homo sapiens, UniProt P10275); assay: Reporter assay of an androgen receptor responsive sequence (luciferase, transiently transfected HEK293 cells); type: cell-based; conditions: 24 hours incubation, relative to activity of 100 nM DHT, read-out: AR transcriptive activity (pEC50) (converted)
T1 construct: expressed in transfected cells; host or cells: HEK293
T1 sequence (P10275 1-920): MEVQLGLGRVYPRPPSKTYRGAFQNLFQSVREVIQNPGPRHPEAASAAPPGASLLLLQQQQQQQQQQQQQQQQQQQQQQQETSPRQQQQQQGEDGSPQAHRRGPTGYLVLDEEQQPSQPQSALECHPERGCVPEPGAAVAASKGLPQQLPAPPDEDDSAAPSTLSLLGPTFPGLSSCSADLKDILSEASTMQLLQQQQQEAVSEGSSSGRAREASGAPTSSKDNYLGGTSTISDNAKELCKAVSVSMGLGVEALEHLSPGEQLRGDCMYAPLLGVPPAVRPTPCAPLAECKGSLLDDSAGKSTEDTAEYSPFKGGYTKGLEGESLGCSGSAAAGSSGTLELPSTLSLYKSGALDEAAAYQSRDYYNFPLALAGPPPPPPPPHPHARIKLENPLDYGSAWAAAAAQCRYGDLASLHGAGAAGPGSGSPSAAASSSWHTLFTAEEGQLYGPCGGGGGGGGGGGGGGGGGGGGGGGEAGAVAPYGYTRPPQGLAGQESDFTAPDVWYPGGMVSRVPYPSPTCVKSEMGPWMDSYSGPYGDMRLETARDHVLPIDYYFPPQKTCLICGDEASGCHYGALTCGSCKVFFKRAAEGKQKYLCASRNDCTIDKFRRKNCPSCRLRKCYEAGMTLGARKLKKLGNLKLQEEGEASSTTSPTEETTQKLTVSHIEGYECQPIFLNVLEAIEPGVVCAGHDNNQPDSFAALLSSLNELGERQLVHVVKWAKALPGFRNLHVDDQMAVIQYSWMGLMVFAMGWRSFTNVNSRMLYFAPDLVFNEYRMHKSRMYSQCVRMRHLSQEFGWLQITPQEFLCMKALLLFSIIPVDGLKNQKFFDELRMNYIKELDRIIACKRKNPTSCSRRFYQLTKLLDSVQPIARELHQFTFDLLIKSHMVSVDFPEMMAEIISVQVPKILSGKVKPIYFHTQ
Method in brief: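 HEK293 cells transiently transfected for 3 h with ARE-firefly luciferase, full-length human AR and TK-Renilla plasmids, then exposed to compound for 24 h at 37 °C in 5% charcoal-treated FBS/DMEM. Dual-Glo luminescence read; pEC50 from 4-parameter fit relative to 100 nM DHT.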

[2] = biological target: T2, androgen receptor (AR-LBD) (Rattus norvegicus, UniProt P15207); assay: Evaluation of androgen receptor affinity (PolarScreen Androgen Receptor Competitor Assay Kit, Red; fluorescence polarization); conditions: 22° C. for 5 hours, relative to binding rate of 1 μM DHT, read-out: AR affinity (pEC50) (converted)
T2 construct: 5 μL of 2×AR-LBD/Fluoromone AL Red Complex contained in the kit; purchased Invitrogen
T2 sequence (P15207 651-882 limits assumed): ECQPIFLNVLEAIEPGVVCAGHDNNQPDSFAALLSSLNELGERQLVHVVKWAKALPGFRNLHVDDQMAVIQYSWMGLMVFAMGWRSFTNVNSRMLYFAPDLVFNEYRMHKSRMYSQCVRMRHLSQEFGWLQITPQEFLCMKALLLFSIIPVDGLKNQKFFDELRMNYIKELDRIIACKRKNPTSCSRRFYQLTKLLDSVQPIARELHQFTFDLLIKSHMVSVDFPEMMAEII
Method in brief: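 Fluorescence polarization competition assay: compound was incubated in duplicate with the kit's AR-LBD/Fluoromone AL Red complex for 5 h at 22 °C. Binding was expressed relative to 1 μM DHT, and pEC50 was derived by 4-parameter fit.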

| Compound | EC50 [1] | EC50 [2] |
| --- | --- | --- |
| CS(=O)(=O)NC(=O)c1nc(N(Cc2ccc(Cl)cn2)c2ccc(C#N)cc2)sc1Br [Compound 641, 5-bromo-2-[N-[(5-chloro-2-pyridyl)methyl]-4-cyano-anilino]-N-methylsulfonyl-thiazole-4-carboxamide] | 79.4 nM | 126 nM |
| Cc1sc(N(Cc2ccccc2)c2ccc(C#N)c(C(F)(F)F)c2)nc1C(=O)NS(C)(=O)=O [Compound 451, 2-[N-benzyl-4-cyano-3-(trifluoromethyl)anilino]-5-methyl-N-methylsulfonyl-thiazole-4-carboxamide] | 50.1 nM | 25.1 nM |
| Cc1sc(N(CCC2CCCCC2)Cc2ccc(OC(F)(F)F)cc2)nc1C(=O)NS(=O)(=O)C(F)(F)F [Compound 724, 2-[2-cyclohexylethyl-[[4-(trifluoromethoxy)phenyl]methyl]amino]-5-methyl-N-(trifluoromethylsulfonyl)thiazole-4-carboxamide] | > 10000 nM | 501 nM |
| CS(=O)(=O)NC(=O)c1nc(N(Cc2ccccc2Cl)c2ccc(C#N)cc2)sc1Br [Example 240, 5-bromo-2-[N-[(2-chlorophenyl)methyl]-4-cyano-anilino]-N-methylsulfonyl-thiazole-4-carboxamide] | 200 nM | 79.4 nM |
| CS(=O)(=O)NC(=O)c1nc(N(Cc2ccc3occc3c2)c2ccc(C#N)cc2)sc1Cl [Example 279, 2-[N-(benzofuran-5-ylmethyl)-4-cyano-anilino]-5-chloro-N-methylsulfonyl-thiazole-4-carboxamide] | 50.1 nM | 31.6 nM |
| Cc1sc(N(CCc2ccccc2Cl)Cc2ccccc2)nc1C(=O)NS(C)(=O)=O [Example 303, 2-[benzyl-[2-(2-chlorophenyl)ethyl]amino]-5-methyl-N-methylsulfonyl-thiazole-4-carboxamide] | > 10000 nM | 126 nM |
| Cc1oc(N(CC[C@@H]2CCCC[C@H]2O)c2ccc(C#N)cc2)nc1C(=O)NS(C)(=O)=O (racemic) [Compound 624, 2-[4-cyano-N-[2-[trans-2-hydroxycyclohexyl]ethyl]anilino]-5-methyl-N-methylsulfonyl-oxazole-4-carboxamide] | 7940 nM | 794 nM |
| CS(=O)(=O)NC(=O)c1nc(N(Cc2ccc(OC(F)F)cc2)c2ccc(C#N)cc2)oc1C1CC1 [Compound 648, 2-[4-cyano-N-[[4-(difluoromethoxy)phenyl]methyl]anilino]-5-cyclopropyl-N-methylsulfonyl-oxazole-4-carboxamide] | > 10000 nM | 50.1 nM |
| Cc1sc(N(CCc2ccc(Cl)cc2)Cc2ccc(OC(F)(F)F)cc2)nc1C(=O)NS(=O)(=O)C(F)(F)F [Compound 704, 2-[2-(4-chlorophenyl)ethyl-[[4-(trifluoromethoxy)phenyl]methyl]amino]-5-methyl-N-(trifluoromethylsulfonyl)thiazole-4-carboxamide] | > 10000 nM | 316 nM |
| Cc1sc(N(CCc2ccc(C#N)cc2)Cc2ccc(Cl)cc2)nc1C(=O)NS(=O)(=O)Cc1cccnc1 [Compound 321, 2-[(4-chlorophenyl)methyl-[2-(4-cyanophenyl)ethyl]amino]-5-methyl-N-(3-pyridylmethylsulfonyl)thiazole-4-carboxamide] | 100 nM | 20 nM |
| Cc1sc(N(Cc2ccccc2)c2ccc(C#N)cc2)nc1C(=O)NS(=O)(=O)Cc1ccncc1 [Compound 395, 2-(N-benzyl-4-cyano-anilino)-5-methyl-N-(4-pyridylmethylsulfonyl)thiazole-4-carboxamide] | 158 nM | 100 nM |
| CS(=O)(=O)NC(=O)c1nc(N(Cc2ccccc2OC(F)F)c2ccc(C#N)cc2)sc1Br [Example 254, 5-bromo-2-[4-cyano-N-[[2-(difluoromethoxy)phenyl]methyl]anilino]-N-methylsulfonyl-thiazole-4-carboxamide] | 158 nM | 39.8 nM |

Results, then the molecule that gave them:

| EC50 [1] | EC50 [2] | Compound |
| --- | --- | --- |
| 15.8 nM | 31.6 nM | Cc1sc(N(Cc2ccc(Cl)c(Cl)c2)c2ccc(C#N)cc2)nc1C(=O)NS(C)(=O)=O [Compound 100, 2-[4-cyano-N-[(3,4-dichlorophenyl)methyl]anilino]-5-methyl-N-methylsulfonyl-thiazole-4-carboxamide] |
| 31.6 nM | 50.1 nM | Cc1sc(N(Cc2cccc(Cl)c2F)c2ccc(C#N)cc2)nc1C(=O)NS(C)(=O)=O [Compound 107, 2-[N-[(3-chloro-2-fluoro-phenyl)methyl]-4-cyano-anilino]-5-methyl-N-methylsulfonyl-thiazole-4-carboxamide] |
| 158 nM | 50.1 nM | COc1c(F)c(CN(c2ccc(C#N)cc2)c2nc(C(=O)NS(C)(=O)=O)c(C)s2)c(F)c(F)c1C(F)(F)F [Compound 418, 2-[4-cyano-N-[[2,3,6-trifluoro-5-methoxy-4-(trifluoromethyl)phenyl]methyl]anilino]-5-methyl-N-methylsulfonyl-thiazole-4-carboxamide] |
| 2510 nM | 63.1 nM | COCCCS(=O)(=O)NC(=O)c1nc(N(Cc2ccc(Cl)cc2OC(F)F)c2ccc(C#N)cc2)sc1C [Example 194, 2-[N-[[4-chloro-2-(difluoromethoxy)phenyl]methyl]-4-cyano-anilino]-N-(3-methoxypropylsulfonyl)-5-methyl-thiazole-4-carboxamide] |
| 126 nM | 31.6 nM | Cc1sc(N(Cc2ccc(OC(F)(F)F)cc2)c2ccc(C#N)cc2)nc1C(=O)NS(=O)(=O)CC1CCOC1 (stereo not shown) [Example 202, 2-[4-cyano-N-[[4-(trifluoromethoxy)phenyl]methyl]anilino]-5-methyl-N-(tetrahydrofuran-3-ylmethylsulfonyl)thiazole-4-carboxamide] |
| 158 nM | 31.6 nM | Cc1sc(N(Cc2ccc(-c3ccccc3F)cc2)c2ccc(C#N)cc2)nc1C(=O)NS(C)(=O)=O [Compound 590, 2-[4-cyano-N-[[4-(2-fluorophenyl)phenyl]methyl]anilino]-5-methyl-N-methylsulfonyl-thiazole-4-carboxamide] |
| 1580 nM | 200 nM | COCCCS(=O)(=O)NC(=O)c1nc(N(Cc2cnc(C(F)(F)F)c(OC)c2)c2ccc(C#N)cc2)sc1C [Compound 532, 2-[4-cyano-N-[[5-methoxy-6-(trifluoromethyl)-3-pyridyl]methyl]anilino]-N-(3-methoxypropylsulfonyl)-5-methyl-thiazole-4-carboxamide] |
| 15.8 nM | 31.6 nM | Cc1sc(N(Cc2ccc(C(F)F)c(F)c2)c2ccc(C#N)cc2)nc1C(=O)NS(C)(=O)=O [Compound 155, 2-[4-cyano-N-[[4-(difluoromethyl)-3-fluoro-phenyl]methyl]anilino]-5-methyl-N-methylsulfonyl-thiazole-4-carboxamide] |
| 126 nM | 158 nM | Cc1sc(N(Cc2ccc3c(c2)C(O)CC3)c2ccc(C#N)cc2)nc1C(=O)NS(C)(=O)=O (stereo not shown) [Compound 484, 2-[4-cyano-N-[(3-hydroxyindan-5-yl)methyl]anilino]-5-methyl-N-methylsulfonyl-thiazole-4-carboxamide] |
| 2510 nM | 398 nM | Cc1sc(N(CCc2ccccc2)c2ccc(C#N)cc2)nc1C(=O)NS(C)(=O)=O [Compound 52, 2-[4-cyano-N-(2-phenylethyl)anilino]-5-methyl-N-methylsulfonyl-thiazole-4-carboxamide] |
| 316 nM | 25.1 nM | Cc1sc(N(Cc2cc(OC(F)F)ccc2F)c2ccc(C#N)cc2)nc1C(=O)NS(C)(=O)=O [Compound 520, 2-[4-cyano-N-[[5-(difluoromethoxy)-2-fluoro-phenyl]methyl]anilino]-5-methyl-N-methylsulfonyl-thiazole-4-carboxamide] |
